Structures can show the parent of a compound that is named as a salt. Where two headings read alike, the source gives them in different places.
Key:
CYP121A1 [1] = molecular target: T1, CYP121A1 (Mycobacterium tuberculosis, UniProt P9WPP7); test: X-ray crystallographic screening (crystal soaking); assay type: binding; conditions: soaking experiments
T1 construct: made in house

CYP121A1 [2] = molecular target: T1, CYP121A1; test: biochemical; assay type: binding; conditions: for Kd: UV-Vis titration, compounds screened at 300 μM, Type II Soret shift, 28 °C
Mtb CYP121A1 [3] = molecular target: T2, Mtb CYP121A1 (Mycobacterium tuberculosis, UniProt P9WPP7); test: Differential scanning fluorimetry (DSF); assay type: binding; conditions: read-out: ΔTm
T2 construct: His6; made in house

Mtb H37Rv = test: Antimycobacterial activity assay (resazurin colorimetric, whole-cell); assay type: cell-based, Mycobacterium tuberculosis; conditions: for MIC90: Mycobacterium tuberculosis, H37RV; for Activity against Mtb: three growth media
CYP121A1 [4] = molecular target: T1, CYP121A1; assay type: biochemical; conditions: 100 μM compound + 100 μM cYY
Mtb CYP121A1 [5] = molecular target: T2, Mtb CYP121A1; test: biochemical; assay type: binding; conditions: 25 °C, 50 μM CYP121A1, 10% DMSO-d6; read-out: Kd (ITC)
CYP121A1 [6] = molecular target: T1, CYP121A1; assay type: binding; conditions: Kd for cYY over the cYY control
Mtb strain H37Rv = conditions: comparison with 61; cited from earlier work
[7] = 168 h, Mtb H37Rv, 7H9 with low BSA (0.05% albumin, ADN), one week, read-out: MIC90 7H9-Low BSA
[8] = 168 h, Mtb H37Rv, Middlebrook 7H9 with 10% ADC (BSA rich), one week, read-out: MIC90 c7H9
[9] = 336 h, Mtb H37Rv, Mycobacterial Minimal Medium with cholesterol, two weeks, read-out: MIC90 MMM-Ch
[10] = medium not specified or span over the three growth media tested, read-out: MIC90 against Mtb strain H37Rv

T1 sequence (P9WPP7 whole entry): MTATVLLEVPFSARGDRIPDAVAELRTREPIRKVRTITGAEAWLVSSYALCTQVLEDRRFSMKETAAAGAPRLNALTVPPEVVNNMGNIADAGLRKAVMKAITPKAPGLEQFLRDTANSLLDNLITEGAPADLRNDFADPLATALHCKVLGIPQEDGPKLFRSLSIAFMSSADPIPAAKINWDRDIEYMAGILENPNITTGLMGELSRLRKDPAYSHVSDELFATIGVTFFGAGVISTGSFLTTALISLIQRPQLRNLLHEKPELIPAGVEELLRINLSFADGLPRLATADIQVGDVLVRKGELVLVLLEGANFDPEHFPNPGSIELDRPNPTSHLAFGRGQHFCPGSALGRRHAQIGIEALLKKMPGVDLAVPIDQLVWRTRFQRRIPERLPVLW
T2 sequence (P9WPP7 whole entry): as above

Structure (SMILES) | MIC90 (Mtb H37Rv; [7]) [µM] | MIC90 (Mtb H37Rv; [8]) [µM] | MIC90 (Mtb H37Rv; [9]) [µM] | further results
c1ccc2c(CCc3ccncc3)c[nH]c2c1 [Compound 7] |  |  |  | X-ray crystallographic screening result (CYP121A1 [1]): hits; Kd (CYP121A1 [2]): 483 ± 76 µM
Clc1ccc2[nH]cc(CCc3ccncc3)c2c1 [Compound 8] |  |  |  | Kd (CYP121A1 [2]): 5.8 ± 0.7 µM
Brc1ccc2[nH]cc(CCc3ccncc3)c2c1 [Compound 9] |  |  |  | Kd (CYP121A1 [2]): 3.8 ± 0.5 µM
c1ccc2c(CCc3ccncn3)c[nH]c2c1 [Compound 10] |  |  |  | X-ray crystallographic screening result (CYP121A1 [1]): hits; ΔTm at 1000 µM (Mtb CYP121A1 [3]): 3.5 °C
c1ccc2c(CCc3ccnc(N4CCOCC4)n3)c[nH]c2c1 [Compound 14, 4-(4-(2-(1H-Indol-3-yl)ethyl)pyrimidin-2-yl)morpholine] | 25 | 25 | 12.5 | MIC90 (Mtb H37Rv; [10]): 12.5 to 25 µM; Inhibition of CYP121A1 / production of mycocyclosin (CYP121A1 [4]): markedly reduced the production of mycocyclosin; Kd (Mtb CYP121A1 [5]): ~100 µM; X-ray crystallographic screening result (CYP121A1 [1]): hits; Soret band shift (416.5 nm) (CYP121A1 [2]; UV-Vis screen): lack of shift; Fold increase (CYP121A1 [6]): 1.5
c1ccc2c(CCc3ccnc(N4CCSCC4)n3)c[nH]c2c1 [Compound 15, 4-(4-(2-(1H-Indol-3-yl)ethyl)pyrimidin-2-yl)thiomorpholine] | 100 | 200 | 25 | MIC90 (Mtb H37Rv; [10]): 12.5 to 50 µM
Brc1ccc2[nH]cc(CCc3ccnc(N4CCOCC4)n3)c2c1 [Compound 21, 4-(4-(2-(5-Bromo-1H-indol-3-yl)ethyl)pyrimidin-2-yl)morpholine] |  |  |  | X-ray crystallographic screening result (CYP121A1 [1]): hits
CN1CCN(c2nccc(CCc3c[nH]c4ccc(Br)cc34)n2)CC1 [Compound 23, 5-Bromo-3-(2-(2-(4-methylpiperazin-1-yl)pyrimidin-4-yl)ethyl)-1H-indole] | 25 | 100 | 12.5 | MIC90 (Mtb H37Rv; [10]): 12.5 to 50 µM
Brc1ccc2[nH]cc(CCc3ccnc(N4CCCO4)n3)c2c1 [Compound 30, 2-(4-(2-(5-Bromo-1H-indol-3-yl)ethyl)pyrimidin-2-yl)isoxazolidine] | 200 | 200 | 100 | 
COC1CN(c2nccc(CCc3c[nH]c4ccccc34)n2)C1 [Compound 31, 3-(2-(2-(3-Methoxyazetidin-1-yl)pyrimidin-4-yl)ethyl)-1H-indole] | 25 | 50 | 25 | Activity against Mtb (Mtb H37Rv): moderate inhibitors; X-ray crystallographic screening result (CYP121A1 [1]): hits
COC1CN(c2nccc(CCc3c[nH]c4ccc(Cl)cc34)n2)C1 [Compound 32, 5-Chloro-3-(2-(2-(3-methoxyazetidin-1-yl)pyrimidin-4-yl)ethyl)-1H-indole] | 100 | 200 | 50 | MIC90 (Mtb H37Rv; [10]): 12.5 to 50 µM
COC1CN(c2nccc(CCc3c[nH]c4ccc(Br)cc34)n2)C1 [Compound 33, 5-Bromo-3-(2-(2-(3-methoxyazetidin-1-yl)pyrimidin-4-yl)ethyl)-1H-indole] |  |  |  | X-ray crystallographic screening result (CYP121A1 [1]): hits
FC(F)(F)Oc1ccc(-c2nccc(CCc3c[nH]c4ccccc34)n2)cc1 [Compound 34, 3-(2-(2-(4-(Trifluoromethoxy)phenyl)pyrimidin-4-yl)ethyl)-1H-indole] | 100 | 100 | 12.5 | MIC90 (Mtb H37Rv; [10]): 12.5 to 50 µM
Fc1ccc2[nH]cc(CCc3ccncc3)c2c1 [Compound 41] |  |  |  | Kd (CYP121A1 [2]): 27.3 ± 4.8 µM
Ic1ccc2[nH]cc(CCc3ccncc3)c2c1 [Compound 42, 5-Iodo-3-(2-(pyridin-4-yl)ethyl)-1H-indole] |  |  |  | Kd (CYP121A1 [2]): 3.2 ± 0.3 µM
COc1ccc2[nH]cc(CCc3ccncc3)c2c1 [Compound 43] |  |  |  | Kd (CYP121A1 [2]): 105 ± 10 µM
FC(F)(F)Oc1ccc2[nH]cc(CCc3ccncc3)c2c1 [Compound 44, 3-(2-(Pyridin-4-yl)ethyl)-5-(trifluoromethoxy)-1H-indole] |  |  |  | Kd (CYP121A1 [2]): 12.7 ± 2.3 µM

Structure (SMILES) | MIC90 (Mtb H37Rv; [7]) [µM] | MIC90 (Mtb H37Rv; [8]) [µM] | MIC90 (Mtb H37Rv; [9]) [µM] | further results
Nc1[nH]nc(-c2ccc(O)cc2)c1-c1ccc(O)cc1 [Compound 45, reference compound] |  |  |  | Kd (Mtb CYP121A1 [5]): 20 to 25 µM; ΔTm at 1000 µM (Mtb CYP121A1 [3]): 1 °C
Fc1ccc2[nH]cc(CCc3ccnc(N4CCOCC4)n3)c2c1 [Compound 51, 4-(4-(2-(5-Fluoro-1H-indol-3-yl)ethyl)pyrimidin-2-yl)morpholine] | 50 | 25 | 25 | Activity against Mtb (Mtb H37Rv): moderate inhibitors
FC(F)(F)Oc1ccc2[nH]cc(CCc3ccnc(N4CCOCC4)n3)c2c1 [Compound 53, 4-(4-(2-(5-(Trifluoromethoxy)-1H-indol-3-yl)ethyl)pyrimidin-2-yl)morpholine] | 25 | 25 | 50 | Activity against Mtb (Mtb H37Rv): moderate inhibitors
Oc1ccc2[nH]cc(CCc3ccnc(N4CCOCC4)n3)c2c1 [Compound 55, 3-(2-(2-Morpholinopyrimidin-4-yl)ethyl)-1H-indol-5-ol] |  |  |  | ΔTm at 1000 µM (Mtb CYP121A1 [3]): 0.5 °C
Cn1cc(CCc2ccnc(N3CCOCC3)n2)c2ccccc21 [Compound 57, 4-(4-(2-(1-Methyl-1H-indol-3-yl)ethyl)pyrimidin-2-yl)morpholine] | 25 | 50 | 25 | Activity against Mtb (Mtb H37Rv): moderate inhibitors
c1ccc2c(CCc3ccnc(N4CC5CCC(C4)O5)n3)c[nH]c2c1 [Compound 58, 3-(4-(2-(1H-Indol-3-yl)ethyl)pyrimidin-2-yl)-8-oxa-3-azabicyclo[3.2.1]octane] | 50 | 200 | 25 | Activity against Mtb (Mtb H37Rv): active, but showed much reduced potency in BSA rich medium
c1ccc2c(CCc3ccnc(N4CCCOCC4)n3)c[nH]c2c1 [Compound 60, 4-(4-(2-(1H-Indol-3-yl)ethyl)pyrimidin-2-yl)-1,4-oxazepane] | 50 | 25 | 25 | Activity against Mtb (Mtb H37Rv): moderate inhibitors
c1ccc2c(c1)OCCN2c1nccc(CCc2c[nH]c3ccccc23)n1 [Compound 61, 4-(4-(2-(1H-Indol-3-yl)ethyl)pyrimidin-2-yl)-3,4-dihydro-2H-benzo[b][1,4]oxazine] | 25 | 12.5 | 6.25 | MIC90 (Mtb H37Rv; converted from μM value, read-out: MIC90 against Mtb strain H37Rv): ~2.2 µg/mL; MIC90 (Mtb H37Rv; [10]): 6.25 µM; Activity against Mtb (Mtb H37Rv): moderate inhibitors; Inhibition of CYP121A1 / production of mycocyclosin (CYP121A1 [4]): markedly reduced the production of mycocyclosin
Brc1ccc2c(c1)N(c1nccc(CCc3c[nH]c4ccccc34)n1)CCO2 [Compound 63, 4-(4-(2-(1H-Indol-3-yl)ethyl)pyrimidin-2-yl)-6-bromo-3,4-dihydro-2H-benzo[b][1,4]oxazine] | 50 | 25 | 50 | Activity against Mtb (Mtb H37Rv): moderate inhibitors
CC(=O)n1cc(CCc2ccnc(N3CCOCC3)n2)c2ccccc21 [Compound 64, 1-(3-(2-(2-Morpholinopyrimidin-4-yl)ethyl)-1H-indol-1-yl)ethan-1-one] | > 400 | > 400 | > 400 | Activity against Mtb (Mtb H37Rv): essentially lost all activity
c1ccc2c(CCc3nc4c(c(N5CCOCC5)n3)CNC4)c[nH]c2c1 [Compound 81, 4-(2-(2-(1H-Indol-3-yl)ethyl)-6,7-dihydro-5H-pyrrolo[3,4-d]pyrimidin-4-yl)morpholine hydrochloride] |  |  |  | ΔTm at 1000 µM (Mtb CYP121A1 [3]): 3.5 °C
c1ccc2c(CCc3nc4c(c(N5CC6CCC(C5)O6)n3)CNC4)c[nH]c2c1 [Compound 82, 3-(2-(2-(1H-Indol-3-yl)ethyl)-6,7-dihydro-5H-pyrrolo[3,4-d]pyrimidin-4-yl)-8-oxa-3-azabicyclo[3.2.1]octane hydrochloride] |  |  |  | ΔTm at 1000 µM (Mtb CYP121A1 [3]): 2.4 °C
c1ccc2c(CCc3nc4c(c(N5CCOCC5)n3)CCNC4)c[nH]c2c1 [Compound 83, 4-(2-(2-(1H-Indol-3-yl)ethyl)-5,6,7,8-tetrahydropyrido[3,4-d]pyrimidin-4-yl)morpholine hydrochloride] |  |  |  | ΔTm at 1000 µM (Mtb CYP121A1 [3]): 1 °C
CO[C@H]1/C=C/O[C@@]2(C)Oc3c(C)c(O)c4c(O)c(c(/C=N/N5CCN(C)CC5)c(O)c4c3C2=O)NC(=O)/C(C)=C\C=C\[C@H](C)[C@H](O)[C@@H](C)[C@@H](O)[C@@H](C)[C@H](OC(C)=O)[C@@H]1C [Rifampicin, reference compound] | 0.013 | 0.023 | 0.013 | 
Clc1ccccc1C(c1ccccc1)(c1ccccc1)n1ccnc1 [clotrimazole] |  |  |  | MIC90 of azole anti-fungal drugs (Mtb strain H37Rv): 11 µg/mL
Clc1ccc(COC(Cn2ccnc2)c2ccc(Cl)cc2Cl)cc1 (centres unmarked) [econazole] |  |  |  | MIC90 of azole anti-fungal drugs (Mtb strain H37Rv): 8 µg/mL
Clc1ccc(COC(Cn2ccnc2)c2ccc(Cl)cc2Cl)c(Cl)c1 (centres unmarked) [miconazole] |  |  |  | MIC90 of azole anti-fungal drugs (Mtb strain H37Rv): 8 µg/mL

From PMC8856928, “A new strategy for hit generation: Novel in cellulo active inhibitors of CYP121A1 from Mycobacterium tuberculosis via a combined X-ray crystallographic and phenotypic screening approach (XP screen)” (European Journal of Medicinal Chemistry, 2022)
